From ChEMBL document CHEMBL1128968, “Phosphinic acid inhibitors of matrix metalloproteinases” (Bioorg Med Chem Lett, 1996)

Assays:
[1] = molecular target: T1, Stromelysin-1 (Homo sapiens, UniProt P08254); test: Inhibition of stromelysin-1 (MMP-3).
[2] = molecular target: T2, 72 kDa type IV collagenase (Homo sapiens, UniProt P08253); test: Inhibition of gelatinase-A (MMP-2) at a concentration of 1 uM
Target sequence in this assay (P08253 110-660 limits assumed): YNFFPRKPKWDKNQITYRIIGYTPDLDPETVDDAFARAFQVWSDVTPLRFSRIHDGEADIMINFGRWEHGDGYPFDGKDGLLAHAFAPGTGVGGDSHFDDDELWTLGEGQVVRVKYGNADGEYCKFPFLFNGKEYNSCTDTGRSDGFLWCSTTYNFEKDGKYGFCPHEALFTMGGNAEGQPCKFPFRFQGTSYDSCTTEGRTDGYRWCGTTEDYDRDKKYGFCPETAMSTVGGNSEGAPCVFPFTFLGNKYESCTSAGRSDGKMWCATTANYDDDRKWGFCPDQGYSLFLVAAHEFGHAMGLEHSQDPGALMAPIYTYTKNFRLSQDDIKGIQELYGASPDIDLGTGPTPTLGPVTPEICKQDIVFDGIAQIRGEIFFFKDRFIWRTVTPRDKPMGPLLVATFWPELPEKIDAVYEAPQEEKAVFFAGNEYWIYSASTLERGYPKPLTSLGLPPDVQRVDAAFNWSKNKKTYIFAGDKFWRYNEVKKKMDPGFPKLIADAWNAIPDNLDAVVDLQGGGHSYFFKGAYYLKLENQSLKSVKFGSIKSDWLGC

[3] = molecular target: T3, Interstitial collagenase (Homo sapiens, UniProt P03956); test: Inhibition of collagenase-1 (MMP-1).
T3 sequence (P03956 whole entry): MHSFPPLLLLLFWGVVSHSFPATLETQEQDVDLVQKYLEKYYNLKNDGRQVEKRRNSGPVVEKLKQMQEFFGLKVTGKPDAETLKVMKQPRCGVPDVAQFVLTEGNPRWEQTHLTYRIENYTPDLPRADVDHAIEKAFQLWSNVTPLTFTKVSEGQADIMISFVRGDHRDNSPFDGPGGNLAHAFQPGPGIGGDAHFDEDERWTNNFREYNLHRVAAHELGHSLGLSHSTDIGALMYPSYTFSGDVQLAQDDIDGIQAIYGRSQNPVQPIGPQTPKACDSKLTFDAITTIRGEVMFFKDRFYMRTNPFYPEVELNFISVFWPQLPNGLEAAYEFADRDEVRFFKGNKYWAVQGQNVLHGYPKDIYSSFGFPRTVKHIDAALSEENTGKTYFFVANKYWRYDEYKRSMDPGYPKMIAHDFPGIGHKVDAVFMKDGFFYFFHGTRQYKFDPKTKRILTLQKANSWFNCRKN

[4] = molecular target: T2, 72 kDa type IV collagenase; test: Inhibition of gelatinase-A (MMP-2).
Target sequence in this assay (P08253 whole entry): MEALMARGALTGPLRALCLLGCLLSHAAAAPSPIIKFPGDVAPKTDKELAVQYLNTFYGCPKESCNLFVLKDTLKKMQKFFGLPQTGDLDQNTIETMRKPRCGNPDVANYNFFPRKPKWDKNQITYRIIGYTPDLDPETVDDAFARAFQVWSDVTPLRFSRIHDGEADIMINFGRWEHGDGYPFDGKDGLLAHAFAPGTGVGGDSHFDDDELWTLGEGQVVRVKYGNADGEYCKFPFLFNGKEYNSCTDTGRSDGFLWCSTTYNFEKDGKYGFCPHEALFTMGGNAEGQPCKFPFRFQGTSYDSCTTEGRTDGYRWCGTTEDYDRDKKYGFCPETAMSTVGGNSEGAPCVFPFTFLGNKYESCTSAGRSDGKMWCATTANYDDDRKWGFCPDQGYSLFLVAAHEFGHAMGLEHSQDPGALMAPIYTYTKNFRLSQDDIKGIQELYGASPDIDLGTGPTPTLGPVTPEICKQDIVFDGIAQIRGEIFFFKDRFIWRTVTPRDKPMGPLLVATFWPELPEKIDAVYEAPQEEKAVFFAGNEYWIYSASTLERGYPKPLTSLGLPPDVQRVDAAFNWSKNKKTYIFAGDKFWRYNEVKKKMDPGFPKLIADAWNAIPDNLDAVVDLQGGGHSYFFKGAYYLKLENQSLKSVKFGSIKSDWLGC

[5] = molecular target: T1, Stromelysin-1; test: Inhibition of stromelysin-1 (MMP-3)
[6] = molecular target: T2, 72 kDa type IV collagenase; test: Inhibition of gelatinase-A (MMP-2)
Target sequence in this assay (P08253 whole entry): as above

T1 sequence (P08254 whole entry): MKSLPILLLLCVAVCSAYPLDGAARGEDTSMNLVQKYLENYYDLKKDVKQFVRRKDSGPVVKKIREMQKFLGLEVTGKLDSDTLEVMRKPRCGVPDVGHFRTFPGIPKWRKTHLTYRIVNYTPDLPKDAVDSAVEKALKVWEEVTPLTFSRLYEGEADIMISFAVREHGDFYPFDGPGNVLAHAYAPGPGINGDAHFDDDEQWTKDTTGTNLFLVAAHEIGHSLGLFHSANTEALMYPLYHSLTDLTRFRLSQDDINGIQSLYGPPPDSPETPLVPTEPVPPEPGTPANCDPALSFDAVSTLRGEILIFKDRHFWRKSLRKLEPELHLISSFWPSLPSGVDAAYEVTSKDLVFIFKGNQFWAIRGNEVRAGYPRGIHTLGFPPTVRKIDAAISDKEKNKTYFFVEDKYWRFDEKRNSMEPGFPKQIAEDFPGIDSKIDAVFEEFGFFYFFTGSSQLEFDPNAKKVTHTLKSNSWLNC

SMILES	Ki [1]	inhibition [2]	Ki [3]	Ki [4]	also measured
CC(C)C[C@H](NC(=O)[C@H](CCc1ccccc1)CP(=O)(O)CCCCNC(=O)Oc1ccccc1)C(=O)Nc1ccccc1	0.056 µM	73%	≥ 10 µM		
COC(=O)NCCCCP(=O)(O)C[C@@H](CCc1ccccc1)C(=O)N[C@@H](CC(C)C)C(=O)Nc1ccccc1	0.054 µM	90%	≥ 10 µM		
CC(C)C[C@H](NC(=O)[C@H](CCc1ccccc1)CP(=O)(O)CCCCNC(=O)[C@@H]1CCCN1C(=O)c1ccccc1)C(=O)Nc1ccccc1	0.013 µM		≥ 10 µM	0.0021 µM	
CC(=O)N1CCC[C@@H]1C(=O)NCCCCP(=O)(O)C[C@@H](CCc1ccccc1)C(=O)N[C@@H](CC(C)C)C(=O)Nc1ccccc1	0.026 µM	92%	≥ 10 µM		
CC(C)C[C@H](NC(=O)[C@H](CCc1ccccc1)CP(=O)(O)CCC(=O)NCc1ccccc1)C(=O)Nc1ccccc1			≥ 10 µM		Ki [5]: 0.54 µM
CC(C)C[C@H](NC(=O)[C@H](CCc1ccccc1)CP(=O)(O)CCCCN1C(=O)c2ccccc2C1=O)C(=O)Nc1ccccc1			≥ 10 µM	0.02 µM	
COc1cccc(CC[C@H](CP(=O)(O)CCCCN2C(=O)c3ccccc3C2=O)C(=O)N[C@@H](CC(C)C)C(=O)Nc2ccccc2)c1	0.0025 µM		≥ 10 µM	0.0021 µM	
CC(C)C[C@H](NC(=O)[C@H](CCc1ccccc1)CP(C)(=O)O)C(=O)Nc1ccccc1	1.5 µM		≥ 10 µM	0.57 µM	
CC(C)C[C@H](NC(=O)[C@H](CCc1ccccc1)CP(=O)(O)C/C=C/CN1C(=O)c2ccccc2C1=O)C(=O)Nc1ccccc1	0.0045 µM		≥ 10 µM	0.0048 µM	
CC(C)C[C@H](NC(=O)[C@H](CCc1ccccc1)CP(=O)(O)CNC(=O)CN1C(=O)c2ccccc2C1=O)C(=O)Nc1ccccc1	0.41 µM				
CC(C)C[C@H](NC(=O)[C@H](Cc1ccccc1)NP(=O)(O)CCCCN1C(=O)c2ccccc2C1=O)C(=O)NCc1ccccc1					IC50 [1]: 2.8 µM; IC50 [3]: 30 µM
CC(C)C[C@H](NC(=O)[C@H](Cc1ccccc1)CP(=O)(O)CCCCN1C(=O)c2ccccc2C1=O)C(=O)NCc1ccccc1					IC50 [1]: 0.43 µM; IC50 [3]: 4.1 µM
CCNC(=O)NCCCCP(=O)(O)C[C@@H](CCc1ccccc1)C(=O)N[C@@H](CC(C)C)C(=O)Nc1ccccc1	0.017 µM		≥ 10 µM		Ki [6]: 0.019 µM
CC(C)C[C@H](NC(=O)[C@H](Cc1ccccc1)OP(=O)(O)CCCCN1C(=O)c2ccccc2C1=O)C(=O)NCc1ccccc1					IC50 [1]: > 200 µM; IC50 [3]: > 32 µM
COc1ccccc1CC[C@H](CP(=O)(O)CCCCN1C(=O)c2ccccc2C1=O)C(=O)N[C@@H](CC(C)C)C(=O)Nc1ccccc1	0.44 µM		≥ 10 µM	4.4 µM	
CNC(=O)NCCCCP(=O)(O)C[C@@H](CCc1ccccc1)C(=O)N[C@@H](CC(C)C)C(=O)Nc1ccccc1	0.13 µM	87%	≥ 10 µM		

SMILES	Ki [1]	inhibition [2]	Ki [3]	Ki [4]	also measured
COc1ccc(CC[C@H](CP(=O)(O)CCCCN2C(=O)c3ccccc3C2=O)C(=O)N[C@@H](CC(C)C)C(=O)Nc2ccccc2)cc1	0.0023 µM		≥ 10 µM	0.012 µM	
CC(C)C[C@H](NC(=O)[C@H](CCc1ccccc1)CP(=O)(O)CCC(=O)NCCCc1ccccc1)C(=O)Nc1ccccc1	0.67 µM	46%	≥ 10 µM		
CC(C)C[C@H](NC(=O)[C@H](CCc1ccccc1)CP(=O)(O)CCCCNC(=O)c1ccccc1)C(=O)Nc1ccccc1	0.0057 µM		≥ 10 µM	0.026 µM	
CC(C)C[C@H](NC(=O)[C@H](CCc1ccccc1)CP(=O)(O)CCCCN)C(=O)Nc1ccccc1	3.7 µM	13%	≥ 10 µM		
CC(C)C[C@H](NP(=O)(O)CCCCN1C(=O)c2ccccc2C1=O)C(=O)N[C@@H](Cc1c[nH]c2ccccc12)C(=O)NCc1ccccc1					IC50 [1]: 0.26 µM; IC50 [3]: 0.05 µM
CC(C)C[C@H](NC(=O)[C@H](CCc1ccccc1)CP(=O)(O)CCCCNC(=O)[C@H]1CCCN1C(=O)c1ccccc1)C(=O)Nc1ccccc1	0.024 µM	89%	≥ 10 µM		
CC(C)C[C@H](NC(=O)[C@H](CCc1ccccc1)CP(=O)(O)CCCCNC(=O)NCc1ccccc1)C(=O)Nc1ccccc1	0.05 µM	96%	≥ 10 µM		
CC(C)C[C@H](NC(=O)[C@H](CCc1ccccc1)CP(=O)(O)CCCCNC(=O)Cc1ccccc1)C(=O)Nc1ccccc1	0.03 µM		≥ 10 µM	0.13 µM	
CC(=O)N1CCC[C@H]1C(=O)NCCCCP(=O)(O)C[C@@H](CCc1ccccc1)C(=O)N[C@@H](CC(C)C)C(=O)Nc1ccccc1	0.062 µM		≥ 10 µM	0.0061 µM	
CC(C)C[C@H](NC(=O)[C@H](CCc1ccccc1)CP(=O)(O)CCCCNC(=O)OCc1ccccc1)C(=O)Nc1ccccc1	0.063 µM	86%	≥ 10 µM		
CC(C)C[C@H](NC(=O)[C@H](CCc1ccccc1)CP(=O)(O)CCCCN1Cc2ccccc2C1=O)C(=O)Nc1ccccc1	0.0055 µM		≥ 10 µM	0.0073 µM	
COC(=O)CCP(=O)(O)C[C@@H](CCc1ccccc1)C(=O)N[C@@H](CC(C)C)C(=O)Nc1ccccc1	0.52 µM		≥ 10 µM	1.3 µM	
CC(C)C[C@H](NC(=O)[C@H](CCc1ccccc1)CP(=O)(O)CCC(=O)Nc1ccccc1)C(=O)Nc1ccccc1	0.47 µM	60%	≥ 10 µM		
CCOC(=O)NCCCCP(=O)(O)C[C@@H](CCc1ccccc1)C(=O)N[C@@H](CC(C)C)C(=O)Nc1ccccc1	0.016 µM	94%	≥ 10 µM		
CC(C)C[C@H](NC(=O)[C@H](CCc1ccccc1)CP(=O)(O)CCC(=O)NCCc1ccccc1)C(=O)Nc1ccccc1	0.17 µM	58%	≥ 10 µM		
CC(C)C[C@H](NC(=O)[C@H](CCc1ccccc1)CP(=O)(O)CCCCNC(=O)Nc1ccccc1)C(=O)Nc1ccccc1	0.07 µM	85%	≥ 10 µM		
